Reference: PMC12720774, “Detergents alter the stability and lipid binding properties of the CD1d immunoreceptor” (Protein Science : A Publication of the Protein Society, 2025)
“And” between values parts separate entries of the source, which are not always exact repeats. Equal values may be shown once.

Assays:
[1] = target: T1, CSP 319‐328/HLA‐B*08:01/hβ2M complex (Homo sapiens, UniProt P01889, A93T/A95T/D138N/E176V/E187T/K202T/Q94N/R180D/S35A/V36M/Y33D/Y91F); assay: MST with peptide/HLA complex; assay type: binding; details: for MST normalized fluorescence signal (Fnorm): peptide/HLA with Tween 20, replicates
T1 construct: made in house
Excerpt: (§1) To determine whether detergent effects were specific to hCD1d, we performed analogous ITF, MST, and nanoDSF experiments with a peptide/HLA complex. HLA‐B*08:01, presenting the Plasmodium falciparum derived peptide […] ([…]), was selected as a representative model system since the peptide antigen contains hydrophilic solvent‐exposed residues in the antigen‐binding groove (Frooman et al., [2025]). Although structurally similar to that of hCD1d, HLA‐B*08:01 shares low sequence identity (Figure S10a). […] By nanoDSF, ODG caused minimal destabilization of either complex (ΔT m≈−0.2 to −0.8°C; Figure S10f). […] We posit that lipid‐specific unloading effects of detergent are due to either hydrophobic residues in the antigen binding groove (detergent‐CD1d interactions) and/or the hydrophobic nature of the lipid antigen (detergent‐lipid interactions).
(§2) For comparison with peptide/HLA molecules, we prepared recombinant CSP 319‐328/HLA‐B*08:01/hβ2M complex using in vitro refolding methods fully described previously (Frooman et al., [2025]). The peptide sequence for CSP 319–328 is […]. This peptide was chosen since it contains Lys, Gln, and Asp residues predicted to be solvent‐exposed in the HLA‐B*08:01 binding groove (Frooman et al., [2025]).
MST experiments with peptide/HLA molecules and detergents were performed using an analogous protocol.

[2] = target: T1, CSP 319‐328/HLA‐B*08:01/hβ2M complex; assay: ITF with peptide/HLA complex; assay type: binding; details: for ITF change in Trp fluorescence (F-F0/F0): peptide/HLA with Tween 20, replicates
Excerpt: as §1, §2
ITF experiments with peptide/HLA molecules and detergents were performed using an analogous protocol.

hCD1d = hCD1d (Homo sapiens, UniProt P15813+P61769); assay: Detergent competition with 18:1 LPC binding to hCD1d (ITF, MST, nanoDSF); parameters: TEV protease cleavage site ENLYFQS (C); BirA biotinylation site (C); His7 (C); made in house; host or cells: TurboCHO cells (GenScript); details: 0.05% detergent
Description: We selected 18:1 LPC for the competition experiments since, first, a structure with hCD1d has been well characterized, and second, it binds hCD1d with moderate micromolar affinity, which is representative of many endogenous lipid antigens (Cantu et al., [2003]; López‐Sagaseta et al., [2012]). In the absence of detergent, 18:1 LPC produced concentration‐dependent changes in ITF and MST signal and decreased the melting temperature of hCD1d (ΔT m = −8.1 ± 1.7°C), indicative of specific binding and hCD1d destabilization (Figure 7c–e).
ITF spectra were recorded from 300 to 500 nm using a Horiba FL3‐21 Fluorometer with the excitation wavelength of 285 nm and excitation/emission slits of 6.2 nm. Fluorescence spectra of 50 to 100 nM hCD1d were acquired in the absence and presence of detergents in 1X PBS pH 7.4 at 25°C. Prior to data acquisition, hCD1d and detergent or lipid samples were incubated at 37°C overnight (~12 h) to simulate in vitro and in vivo loading conditions. […] For 18:1 LPC experiments, fluorescence spectra of 100 nM hCD1d were acquired in the absence and presence of 18:1 LPC in 1X PBS pH 7.4 at 25°C. […] For all ITF experiments, the change in fluorescence signal (F − F 0/F 0) was determined at 335 nm. Three replicates were performed, and data are presented as the mean ± standard deviation (n = 3). K D values were fitted with non‐linear regression in GraphPad Prism v10.1. […]

[3] = concentration 6.25e-5 (unit not given)
[4] = concentration 0.000125 (unit not given)
[5] = concentration 0.00025 (unit not given)

Chain of hCD1d (P61769+P15813 fused): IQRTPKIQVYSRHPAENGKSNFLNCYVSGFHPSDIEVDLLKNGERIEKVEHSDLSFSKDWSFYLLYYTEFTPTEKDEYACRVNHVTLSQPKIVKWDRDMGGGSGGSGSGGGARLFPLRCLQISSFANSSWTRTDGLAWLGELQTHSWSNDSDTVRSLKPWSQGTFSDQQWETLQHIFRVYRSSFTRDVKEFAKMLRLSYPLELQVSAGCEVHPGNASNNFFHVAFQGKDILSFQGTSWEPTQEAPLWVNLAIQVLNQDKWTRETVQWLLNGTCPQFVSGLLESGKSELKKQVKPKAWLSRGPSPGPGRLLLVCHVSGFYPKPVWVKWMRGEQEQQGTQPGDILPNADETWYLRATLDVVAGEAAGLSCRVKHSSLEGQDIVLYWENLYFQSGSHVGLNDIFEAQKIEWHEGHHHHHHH

Tween 20
Kd ([1]; 100 nM AF647‐labeled peptide/HLA, 25°C, read-out: K D (MST), peptide/HLA): 10.1 ± 2.8 µM
MST normalized fluorescence signal (Fnorm) ([1]; concentration 3.05176e-8 (unit not given)): 826.857 and 829.996 and 831.035
MST normalized fluorescence signal (Fnorm) ([1]; concentration 6.10352e-8 (unit not given)): 827.636 and 831.405 and 830.579
MST normalized fluorescence signal (Fnorm) ([1]; concentration 1.2207e-7 (unit not given)): 825.955 and 829.58 and 832.602
MST normalized fluorescence signal (Fnorm) ([1]; concentration 2.44141e-7 (unit not given)): 826.8 and 829.861 and 831.726
MST normalized fluorescence signal (Fnorm) ([1]; concentration 4.88281e-7 (unit not given)): 824.798 and 829.349 and 832.449
MST normalized fluorescence signal (Fnorm) ([1]; concentration 9.76563e-7 (unit not given)): 827.728 and 832.261 and 832.695
MST normalized fluorescence signal (Fnorm) ([1]; concentration 1.95313e-6 (unit not given)): 829.662 and 834.525 and 833.392
MST normalized fluorescence signal (Fnorm) ([1]; concentration 3.90625e-6 (unit not given)): 826.877 and 835.214 and 835.492
MST normalized fluorescence signal (Fnorm) ([1]; concentration 7.8125e-6 (unit not given)): 836.072 and 833.005 and 835.4
MST normalized fluorescence signal (Fnorm) ([1]; concentration 1.5625e-5 (unit not given)): 830.346 and 831.213 and 835.161
MST normalized fluorescence signal (Fnorm) ([1]; concentration 3.125e-5 (unit not given)): 838.975 and 840.638 and 846.826
MST normalized fluorescence signal (Fnorm) [1, 3]: 839.005 and 846.034 and 849.234
MST normalized fluorescence signal (Fnorm) [1, 4]: 840.518 and 838.062 and 842.957
MST normalized fluorescence signal (Fnorm) [1, 5]: 834.255 and 840.226 and 843.206
MST normalized fluorescence signal (Fnorm) ([1]; concentration 0.0005 (unit not given)): 839.953 and 837.123 and 843.815
MST normalized fluorescence signal (Fnorm) ([1]; concentration 0.001 (unit not given)): 833.107 and 838.64 and 841.342
Kd ([2]; 100 nM peptide/HLA, 25°C, read-out: K D (ITF), peptide/HLA): 7.7 ± 0.8 µM
ITF change in Trp fluorescence (F-F0/F0) ([2]; concentration 3.05e-8 (unit not given)): 0
ITF change in Trp fluorescence (F-F0/F0) ([2]; concentration 6.1e-8 (unit not given)): -0.0537 and 0.114 and 0.0797
ITF change in Trp fluorescence (F-F0/F0) ([2]; concentration 1.22e-7 (unit not given)): 0.119 and -0.000172 and -0.0554
ITF change in Trp fluorescence (F-F0/F0) ([2]; concentration 2.44e-7 (unit not given)): -0.00869 and 0.126 and 0.0688
ITF change in Trp fluorescence (F-F0/F0) ([2]; concentration 4.88e-7 (unit not given)): 0.121 and 0.101 and 0.0628
ITF change in Trp fluorescence (F-F0/F0) ([2]; concentration 9.77e-7 (unit not given)): 0.12 and -0.0283 and -0.0494
ITF change in Trp fluorescence (F-F0/F0) ([2]; concentration 1.95e-6 (unit not given)): 0.159 and 0.0122 and -0.04
ITF change in Trp fluorescence (F-F0/F0) ([2]; concentration 3.91e-6 (unit not given)): 0.0962 and 0.218 and 0.169
ITF change in Trp fluorescence (F-F0/F0) ([2]; concentration 7.81e-6 (unit not given)): 0.176 and 0.206 and 0.0921
ITF change in Trp fluorescence (F-F0/F0) ([2]; concentration 1.56e-5 (unit not given)): 0.336 and 0.182 and 0.11
ITF change in Trp fluorescence (F-F0/F0) ([2]; concentration 3.13e-5 (unit not given)): 0.356 and 0.339 and 0.0994
ITF change in Trp fluorescence (F-F0/F0) [2, 3]: 0.189 and 0.365 and 0.248
ITF change in Trp fluorescence (F-F0/F0) [2, 4]: 0.38 and 0.23 and 0.139
ITF change in Trp fluorescence (F-F0/F0) [2, 5]: 0.261 and 0.271 and 0.181
effect of detergent on 18:1 LPC binding to hCD1d (in words) (hCD1d): abolished nearly all detectable binding signals
